The values that follow come from patent US20200247812A1 (Integral Biosciences Private Limited, priority 2018, published 2020).

Assay type in all cases: cell-based
For one assay, the system named is A549. The assay is described as follows: Cell viability assay (resazurin), A549. The settings on record: Homo sapiens, 72-144 hr. As to the method:
(§1) Different cell lines such as pancreatic, (MIA PaCa-2; ATCC®CRL-1420™ & and Panc-1; CRL-1469™), liver carcinoma (HepG2; ATCC® HB-8065™), lung epithelial carcinoma (A549; ATCC® CCL-185™) and others were seeded in their respective medium (DMEM, Cat #10569044, MEM, Cat #41090036; RPMI, Cat #22400089; all with 10% FBS, Gibco, ThermoFisher) at a cell count of 3000 cells per 100 μl per well in a 96 well edge plate (167425; ThermoFisher). Cells were allowed to grow at 37° C. for 24 hr in 5% CO2 (culture conditions) in a Nuaire incubator (humidified). Serially diluted compounds (100 μl) were added to the culture plate 24 hr later and the cultures were further incubated in culture conditions for specified time depending on doubling time of specific cell line (ranging from 72-144 hr). Experiment was terminated at the completion of incubation time with the drug by replacing the medium with 100 μl of 1 mM of resazurin (R7017; Sigma) prepared in respective culture medium and the plates were further incubated in culture conditions for 4 hr. Fluorescence was then measured using a multimodal plate reader (Biotek Synergy Neo) at an excitation wavelength of 535 nm and emission wavelength of 590 nm to obtain relative fluorescence units. Data analysis was done by subtracting the background fluorescence (only medium blank) value from each reading and then normalizing with the vehicle control (DMSO treated cells) to obtain percent survival/proliferation. Percent survival at different doses was used to calculate IC50 by fitting the curve to the “four-parameter variable slope logistic model” using Prism Graph Pad.

The next assay relates to A427. The assay is described as follows: Cell viability assay (resazurin), A427. The settings on record: Homo sapiens, A-427, 72-144 hr. The protocol:
as §1
(In general: Alamar Blue is a resazurin reagent that responds to reducing activity.)

For another assay, the system named is HCT116. Description: Cell viability assay (resazurin), HCT116. The settings on record: Homo sapiens, HCT-116, 72-144 hr. The protocol:
as §1

In assay [1] the test system is phosphorylation of Smad-2 in THP-1 cells. Description: Inhibition of phosphorylation of Smad-2 in THP-1 cells (Phospho-Smad2 ELISA). The conditions noted are these: 1.5 h, human TGF-β 20 ng/ml, 90 min, read-out: pSmad2 IC50. As to the method:
IC50 values of compounds for determining inhibition of phosphorylation of Smad-2 in THP-1 cells (ATCC, Cat # ATCC® TIB-202™) cultured in RPMI medium, (Cat #22400089; with 10% FBS, Gibco, ThermoFisher). THP-1 cells (1.0×10^6 cells/well; 6 well plate) were incubated with serial dilutions of compounds (3 fold, 5 point dose response starting at 10 μM) for 60 min at 37° C., 5% CO2 in an incubator (cell culture conditions) prior to treating them with Recombinant Human TGF-β (20 ng/ml soluble; Cat #100-21, Peprotech) for 90 min. The cells were then pelleted and processed for protein estimation and evaluation of pSmad using ELISA kit from Cell Signaling (PathScan(R) Phospho-Smad2 (Ser465/467) Sandwich ELISA; Cat #7348C) as per manufacturer's protocol. Data analysis was done by subtracting the background absorbance (only negative control) value from each reading and then normalizing with the vehicle control (DMSO treated cells) to obtain percent levels of pSmad-2. Percent inhibition thus obtained (by subtracting expression levels of pSmad from 100) at different doses was used to calculate IC50 by fitting the curve to the “four-parameter variable slope logistic model” using Prism Graph Pad.
Background: In an ELISA, binding on a coated surface is turned into a signal by an enzyme label.

A further assay deals with MV-4-11. The assay is described as follows: Cell viability assay (resazurin), MV-4-11. The conditions noted are these: Homo sapiens, MV4-11, 72-144 hr. As to the method: as §1
Another assay relates to THP1. Description: Cell viability assay (resazurin), THP1. The settings on record: Homo sapiens, THP-1, 72-144 hr. The protocol:
as §1

The next assay relates to HT29. Description: Cell viability assay (resazurin), HT29. The settings on record: Homo sapiens, HT-29, 72-144 hr. As to the method:
Different cell lines such as pancreatic, (MIA PaCa-2; ATCC®CRL-1420™ & and Panc-1; CRL-1469™), liver carcinoma (HepG2; ATCC® HB-8065™), lung epithelial carcinoma (A549; ATCC® CCL-185™) and others were seeded in their respective medium (DMEM, Cat #10569044, MEM, Cat #41090036; RPMI, Cat #22400089; all with 10% FBS, Gibco, ThermoFisher) at a cell count of 3000 cells per 100 μl per well in a 96 well edge plate (167425; ThermoFisher). Cells were allowed to grow at 37° C. for 24 hr in 5% CO2 (culture conditions) in a Nuaire incubator (humidified). Serially diluted compounds (100 μl) were added to the culture plate 24 hr later and the cultures were further incubated in culture conditions for specified time depending on doubling time of specific cell line (ranging from 72-144 hr). […] Fluorescence was then measured using a multimodal plate reader (Biotek Synergy Neo) at an excitation wavelength of 535 nm and emission wavelength of 590 nm to obtain relative fluorescence units. Data analysis was done by subtracting the background fluorescence (only medium blank) value from each reading and then normalizing with the vehicle control (DMSO treated cells) to obtain percent survival/proliferation. […]

Assay [2] concerns mIFN-γ release by activated mouse splenocytes. The assay is described as follows: Mouse splenocyte assay: reversal of TGF-β suppressed, CD3e/CD28 induced mIFN-γ release (ELISA). The settings on record: Balb/c splenocytes, anti-CD3e/CD28, mouse TGF-β 10 ng/ml, 72 hr, read-out: Inhibition of mIFN-γ release by activated Mouse Splenocyte, IC50. As to the method:
IC50 values of compounds for reversal of TGF-β suppressed and CD3e/CD28 induced mIFNγ release was determined in mouse splenocytes isolated from Balb/c mice cultured in RPMI, Cat #22400089; 10% FBS, Gibco, ThermoFisher). Mouse splenocytes (2×10^5 cells/well) were activated with Anti-mouse CD3e (2.5 μg/ml, coated overnight at 4° C.; Cat #14-0032-82, eBioscience) and then incubated with serial dilutions of compounds (3 fold, 8 point dose response starting at 3 μM) in the presence of mouse TGF-β (10 ng/ml; Cat #14-8342-80, ebiosciences) for 30 min at 37° C., 5% CO2 in an incubator (cell culture conditions) prior to treating them with Anti-mouse CD28 (0.1 μg/ml soluble; Cat #16-0281-82, eBiosciences). Splenocytes were further incubated under cell culture conditions for 72 hr after which the supernatant was harvested, diluted to 1:50 and ELISA was performed as per the manufacturer's protocol (mIFN-γ kit; Cat #555138 & 550534, BD Biosciences). Plates were read in Biotek plate reader by measuring absorbance at 450 nm.
The reversal of TGF-β suppressed mIFN-γ release by compounds was quantified by first obtaining the amount of mIFN-γ (in pg/ml) released at each concentration of the compound with respect to the mIFN-γ standard. […] The IC50 was calculated by fitting the curve to the “four-parameter variable slope logistic model” using Prism Graph Pad.

The next assay concerns HepG2. Description: Cell viability assay (resazurin), HepG2. The settings on record: Homo sapiens, 72-144 hr. As to the method: as §1

Regarding `CC(=O)Nc1cc(Nc2cc(-c3cc(Cl)ccc3F)c(=O)[nH]c2C(C)C)ccn1` [Compound 1.48, N-(4-((5-(5-chloro-2-fluorophenyl)-2-isopropyl-6-oxo-1,6-dihydropyridin-3-yl)amino)pyridin-2-yl)acetamide], the IC50 (commonly the concentration that gives 50% inhibition) in the assay on A549 is above 30 µM; in the assay on A427, above 30 µM; in the assay on HCT116, above 30000 nM; in assay [1], 123 nM; in the assay with MV-4-11, 19.9 µM; in the assay with THP1, above 30 µM. The results for the half-inhibitory concentration (IC50) (in the assay on HT29; in assay [2]; with HepG2) were 14.7 µM, 156 nM and above 30 µM, respectively.

Regarding `CC(C)c1[nH]c(=O)c(-c2cc(Cl)ccc2F)cc1Nc1ccnc2[nH]ccc12` [Compound 1.50, 5-((1H-pyrrolo[2,3-b]pyridin-4-yl)amino)-3-(5-chloro-2-fluorophenyl)-6-isopropylpyridin-2(1H)-one], the half-inhibitory concentration (IC50) with A549 is above 30 µM; in the assay with A427, 3.55 µM; with HCT116 it was 1960 nM; in assay [1], 539 nM; with MV-4-11, 0.7 µM; in the assay with THP1, 13.4 µM. Further, the IC50 in the assay with HT29 was 3.82 µM; in assay [2], 107 nM; in the assay with HepG2, above 30 µM.
